Data on seven compounds can be found in patent US12419897B2 (President and Fellows of Harvard College, priority 2018, dated 2025).

In data set [1] the test system is NCI-H716 cells. The experiment in a line: GLP-1 synthesis and secretion in NCI-H716 cells. The class given is cell-based, human. The note with it: for GLP-1 secretion: in vitro; for total GLP-1 (GLP-1 synthesis): media + cell lysates; for total GLP-1 (GLP-1 synthesis) / GLP-1 secretion by CA7S extracted from cecal contents of SG mice: vs DMSO control; for GLP-1 secretion by CA7S extracted from cecal contents of SG mice: 500 μM. On the procedure:
GLP-1 synthesis and secretion were measured in matrigel-polarized NCI-H716 cells. […] (FIG. 28B)
Treatment with compounds. […] The cells were allowed to grow for 2 days in complete RPMI media. […] The concentration of DMSO was kept constant throughout the treatments and used as a negative control. Cells were incubated at 37° C. in an atmosphere of 5% CO2 for 2 hours. After the incubation period, cell culture media was collected in Eppendorf tubes containing 1% trifluoroacetic acid (TFA, Sigma) in sterile purified water (GenClone) to make a final TFA concentration of 0.1% and frozen at −80° C. for further GLP-1 measurements. Cells on cell culture plates were placed on ice and gently washed with PBS (GenClone). Cells used for GLP-1 measurements were treated with ice-cold cell lysis solution of 1% TFA, 1N hydrochloric acid, 5% formic acid, and 1% NaCl (all from Sigma), scraped off of the Matrigel coating, and collected in 96-well plates for peptide purification. Lysates were stored at −80° C. for further analysis.
GLP-1 measurement. Total GLP-1 peptide measurements were performed using the GLP-1 EIA Kit (Sigma, Cat. No. RAB0201) according to manufacturer's instructions. Cell culture media and cell lysates were subjected to peptide purification using Sep Pak C18 Classic columns (Waters Corporation, Milford, Mass.). The column was pretreated with a solution of 0.1% TFA in 80% isopropyl alcohol (EMD Millipore) and equilibrated with 0.1% TFA in water. Cell culture media and cell lysates were loaded onto the column and washed with […]. The peptides were eluted in […]. The eluate was concentrated by drying under vacuum and resuspended in 0.1% TFA in water. 0.1% TFA in water was used as ‘blank’ for cell culture media and purified cell lysate ELISAs. Excess samples were stored at −80° C. for later analyses. Total GLP-1 amounts in the cell culture media (secreted) and cell lysates were calculated using a standard curve provided in the EIA kit.

The target of the next data set is T1, human TGR5 (Homo sapiens, UniProt Q8TDU6).
T1 construct: expressed in transfected cells; host or cells: HEK293T
T1 sequence (Q8TDU6 1-330): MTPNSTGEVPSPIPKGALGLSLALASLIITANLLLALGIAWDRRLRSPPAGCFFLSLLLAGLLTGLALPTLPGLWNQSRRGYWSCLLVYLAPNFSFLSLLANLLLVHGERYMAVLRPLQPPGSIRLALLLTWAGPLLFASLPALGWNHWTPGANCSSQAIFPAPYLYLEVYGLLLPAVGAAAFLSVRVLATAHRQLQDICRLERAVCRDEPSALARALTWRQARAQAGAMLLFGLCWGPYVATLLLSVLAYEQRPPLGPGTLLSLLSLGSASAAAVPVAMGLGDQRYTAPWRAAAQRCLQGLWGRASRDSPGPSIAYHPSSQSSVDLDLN
The experiment in a line: Luciferase reporter assay for human TGR5 activation in HEK293T cells overexpressing human TGR5. The class given is cell-based. The conditions noted are these: for EC50: HEK293T cells overexpressing human TGR5; for TGR5 activation: HEK293T cells overexpressing human TGR5, luminescence readout. As to the method:
Human TGR5 was overexpressed in HEK93T cells along with a luciferase-based TGR5 reporter plasmid. Cells were then incubated with different concentrations of compounds overnight, and TGR5 activation was measured as a luminescence readout.
Plasmids and transient transfections. Human TGR5 was cloned using cDNA from human Caco-2 cells as template and a forward primer with an EcoRIrestriction-site (5′-[…]-3′) and a reverse primer with a XhoI-site (5′-[…]-3′). The PCR product was cloned into the pCDNA 3.1+plasmid (Promega Corporation, Madison, Wis.) and transfected at a concentration of 0.4 μg/ml of media. For luciferase reporter assays for TGR5 activation, the pGL4.29[luc2P/CRE/Hygro] plasmid (Promega Corporation), and the pGL4.74[hRluc/CMV] plasmid (Promega Corporation) were used at concentration of 2 μg/ml and 0.05 μg/ml of media respectively. All plasmids were transfected using Opti-MEM (Gibco) and Lipofectamine 2000 (Invitrogen, Life Technologies, Grand Island, N.Y., USA) according to manufacturer's instructions. Plasmid transfection were performed in antibiotic-free media (MEM for HEK293T and RPMI for Matrigel-attached NCI-H716 cells) with 10% FBS. After overnight incubation, compounds were added in complete media and incubated overnight. Cells were harvested the next day for luciferase assay.
Luciferase reporter assay. Luminescence was measured using the Dual-Luciferase Reporter Assay System (Promega Corporation) according to manufacturer's instructions. Cells were washed gently with PBS and lysed in PLB from the kit. Matrigel-attached cells were scraped in PLB. Luminescence was measured using the SpectraMax M5 plate reader (Molecular Devices, San Jose, Calif.) at the ICCB-Longwood Screening Facility at Harvard Medical School. Luminescence was normalized to Renilla luciferase activity and percentage relative luminescence was calculated compared to DMSO control.
(In general: In a reporter assay the amount or activity of a reporter protein is the signal.)

Another data set has as its system DIO mice. The experiment in a line: Acute treatment of DIO mice via duodenal and rectal catheters: GLP-1 and blood glucose. The note with it: HFD-fed (DIO) mice, 1 mg, vs PBS; for systemic GLP-1 levels in vivo: within 15 minutes. The class given is in vivo, mouse.
The subject of the next data set is Caco-2 cells. The experiment in a line: Caco-2 cell viability assay (CellTiter-Glo, ATP luminescence). The note with it: concentrations up to 3 mM. The format is cell-based. On the procedure: Compounds were also tested for toxicity using Caco-2 cells, a human intestinal epithelial cancer cell line. Caco-2 cells were incubated with compounds for 16 hours and cell death was determined using a luminescence assay measuring ATP levels as a readout for cell viability.
Cell viability assay. Caco-2 cells were treated with compounds diluted in DMSO in complete MEM media. The concentration of DMSO was kept constant and used as a negative control. Cells were incubated with compounds overnight at 37° C. in an atmosphere of 5% CO2. The next day, cell viability was measured using CellTiter-Glo Luminescent Cell Viability Assay from Promega Corporation according to manufacturer's instructions. Luminescence was measured using the SpectraMax M5 plate reader (Molecular Devices, San Jose, Calif.) at the ICCB-Longwood Screening Facility at Harvard Medical School. Luminescence was normalized to DMSO control and percentage relative luminescence was calculated compared to DMSO control.
(Cellular ATP, detected with luciferase, serves as a proxy for viable cell number.)

Data set [2] relates to NCI-H716 cells. The experiment in a line: Intracellular calcium levels in NCI-H716 cells (L-cells). The format is cell-based, human. The conditions noted are these: NCI-H716 cells (L-cells) in vitro. For orientation: Calcium assays in cells follow changes in intracellular calcium, usually with a dye or a luminescent sensor.
Data set [3] can be described thus: Stability after incubation in buffer at physiological pHs (UPLC-MS). The note with it: 37° C. in buffer at physiological pHs. The class given is physicochemical.
[4] abbreviates: listed as cholic acid 7-sulfate.
Where [5] appears, read: listed as Cholic acid 7-sulfate.
The mark [6] stands for this setting: HFD-fed mice, acute cholic acid 7-sulfate treatment.

In general, EC50 refers to the concentration giving half of the maximal effect. A low value points to an effect from little substance.

“Also recorded” adds a separate entry of the source.

Protocol for DIO mice: Next, the ability of CA7S to stimulate GLP-1 secretion and improve hyperglycemia in vivo was evaluated. DIO mice were treated with either CA7S or PBS via duodenal and rectal catheters (FIG. 17A).

As to `C[C@H](CCC(=O)O)[C@H]1CC[C@H]2[C@@H]3[C@H](NS(=O)(=O)O)C[C@@H]4C[C@H](O)CC[C@]4(C)[C@H]3C[C@H](O)[C@]12C` [Compound 1], in the data set on NCI-H716 cells [1], the GLP-1 secretion result was “induce GLP-1 synthesis and secretion”; the “total GLP-1 (GLP-1 synthesis)” value is “increased total GLP-1; also recorded: induce GLP-1 synthesis and secretion”. Also, on human TGR5, the concentration giving a half-maximal response (EC50) amounted to 2.4 µM and the TGR5 activation result is recorded as “induced TGR5 activation in a dose-dependent manner; also recorded: activate TGR5”.
For the compound `C[C@H](CCC(=O)O)[C@H]1CC[C@H]2[C@@H]3[C@H](OS(=O)(=O)O)C[C@@H]4C[C@H](O)CC[C@]4(C)[C@H]3C[C@H](O)[C@]12C` [CA7S, cholic acid 7-sulfate], the “blood glucose levels in vivo” value in the data set on DIO mice (within 15 min) is “reduced blood glucose levels”. The “systemic GLP-1 levels in vivo” value is listed as “increased systemic GLP-1 levels” with DIO mice and “induced GLP-1 levels” with DIO mice (setting [4]). For the same compound, the entries for the “viability of Caco-2 cells” value in the data set with Caco-2 cells and in the data set with Caco-2 cells (setting [5]) were “does not affect the viability” and “no toxicity”, respectively. Moreover, the “GLP-1 secretion by CA7S extracted from cecal contents of SG mice” value in the data set with NCI-H716 cells [1] was “also induced GLP-1 secretion in vitro”; in the data set with NCI-H716 cells [1] (setting [4]), “exhibit activity inducing GLP-1 secretion”. Also, the “GLP-1 secretion after siRNA-mediated knockdown of TGR5” value was “abolished” with NCI-H716 cells [1] and “abolished GLP-1 secretion” in the data set on NCI-H716 cells [1] (setting [4]). Moreover, the GLP-1 secretion result in the data set on NCI-H716 cells [1] is “induced GLP-1 secretion to a similar degree as TDCA in a dose-dependent manner”; in the data set with NCI-H716 cells [1] (setting [5]), “induces GLP-1 secretion in vitro better than the known GLP-1 inducer TDCA”. The results for the intracellular calcium levels entry with NCI-H716 cells [2] and with NCI-H716 cells [2] (setting [5]) were “dose-dependent increase in calcium levels” and “increased calcium levels”, respectively. In addition, under setting [6], the “Cholic acid 7-sulfate concentration (mean ± SEM), Cecum” value turned out to be 2577 ± 185.3 pmol/mg. Besides, under setting [6], the “Cholic acid 7-sulfate concentration (mean ± SEM), Hepatic portal vein” value is on record as 6.128 ± 2.111 pmol/mg. For the same compound, the “CA7S in cecal contents, on average” value (administration of 1 mg, duodenal and rectal catheters) turned out to be 2500 pmol/mg wet mass. Further, the “cholic acid 7-sulfate in the cecum” value (dosing with 1 mg) was around 2500 µM. Besides, the “amounts in systemic circulation and portal vein (gut restriction)” value (ectopic introduction in mice, listed as cholic acid 7-sulfate) is reported as “only minor amounts”. Further, the pH stability result in data set [3] is “stable at physiological pHs”; in data set [3] (setting [5]) it was “stable in a wide range of pHs”. For the same compound, the TGR5 activation entry on human TGR5 was “activated human TGR5 in a dose-dependent manner”; at human TGR5 (setting [5]), “induces TGR5 activation”.
For `C[C@H](CCC(=O)O)[C@H]1CC[C@H]2[C@@H]3[C@H](NS(=O)(=O)O)C[C@@H]4C[C@H](O)CC[C@]4(C)[C@H]3CC[C@]12C` [Compound 2], in the data set with NCI-H716 cells [1], the GLP-1 secretion entry was “induced GLP-1 secretion; also recorded: induce GLP-1 synthesis and secretion”; the “total GLP-1 (GLP-1 synthesis)” value was “increased total GLP-1; also recorded: induce GLP-1 synthesis and secretion”. On human TGR5, the EC50 is 1.7 µM and the TGR5 activation entry is reported as “induced TGR5 activation in a dose-dependent manner; also recorded: activate TGR5”.
On to `C[C@H](CCC(=O)NCCS(=O)(=O)O)[C@H]1CC[C@H]2[C@@H]3CC[C@@H]4C[C@H](O)CC[C@]4(C)[C@H]3C[C@H](O)[C@]12C` [TDCA, tauro-deoxycholic acid], for which the “GLP-1 secretion after siRNA-mediated knockdown of TGR5” value in the data set with NCI-H716 cells [1] is “abolished”.
As for `C[C@H](CCC(=O)O)[C@H]1CCC2[C@H]3C(CC[C@@]21C)[C@@]1(C)CC[C@@H](O)C[C@H]1C[C@H]3S(=O)(=O)O` (stereo partly drawn) [Compound 6, (4R)-4-((3R,5S,7R,8R,10S,13R,17R)-3-hydroxy-10,13-dimethyl-7-sulfohexadecahydro-1H-cyclopenta[a]phenanthren-17-yl)pentanoic acid], in the data set on NCI-H716 cells [1], the GLP-1 secretion entry is “induced an increase in GLP-1 synthesis and secretion”; the “total GLP-1 (GLP-1 synthesis)” value is “increased total GLP-1; also recorded: induced an increase in GLP-1 synthesis and secretion”. Also, the TGR5 activation result on human TGR5 is reported as “induced TGR5 activation in a dose-dependent manner; also recorded: activated TGR5”.
Turning to `C[C@H](CCC(=O)O)[C@H]1CC[C@H]2[C@@H]3[C@H](NS(=O)(=O)O)[C@H](O)[C@@H]4C[C@H](O)CC[C@]4(C)[C@H]3CC[C@]12C` [Compound 3], in the data set with NCI-H716 cells [1], the GLP-1 secretion result was “induced GLP-1 secretion; also recorded: induce GLP-1 synthesis and secretion”; the “total GLP-1 (GLP-1 synthesis)” value was “increased total GLP-1; also recorded: induce GLP-1 synthesis and secretion”. Moreover, the TGR5 activation entry at human TGR5 is listed as “induced TGR5 activation in a dose-dependent manner; also recorded: activate TGR5”.
For the compound `C[C@H](CCC(=O)O)[C@H]1CC[C@H]2[C@@H]3[C@H](O)C[C@@H]4C[C@H](O)CC[C@]4(C)[C@H]3C[C@H](O)[C@]12C` [CA, cholic acid], the GLP-1 secretion result in the data set with NCI-H716 cells [1] was “had no effect on GLP-1 secretion”; in the data set on NCI-H716 cells [1] (listed as cholic acid), “had no effect”.
